Results published in PubChem BioAssay (NCI).
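Cells were grown in 96-well plates and exposed to each compound for 48 hours at five concentrations; endpoints were interpolated linearly between bracketing concentrations, or set to the highest concentration if not reached. GI50: concentration for 50% inhibition of growth. Definition used: TGI = concentration required for complete inhibition of growth.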

Columns and labels:
Experiment in all cases: inhibition of tumour cell growth, NCI panel, 48 h
[1] = system: BT-549 breast
[2] = system: IGROV1 ovarian
[3] = system: MDA-MB-468 breast
[4] = system: NCI-H460 lung
[5] = system: MDA-MB-231 breast
[6] = system: U251 CNS
[7] = system: UACC-257 melanoma
[8] = system: SN12C renal
[9] = system: A549 NSCLC
[10] = system: SF-295 CNS
[11] = system: SNB-19 CNS
[12] = system: MALME-3M melanoma
[13] = system: SK-MEL-28 melanoma
[14] = system: SK-MEL-5 melanoma
[15] = system: EKVX NSCLC
[16] = system: ACHN renal
[17] = system: CAKI-1 renal
[18] = system: OVCAR-8 ovarian
[19] = system: HOP-62 NSCLC
[20] = system: MCF7 breast
[21] = system: MOLT-4 leukemia
[22] = system: SK-OV-3 ovarian
[23] = system: OVCAR-4 ovarian
[24] = system: HT29 colon
[25] = system: RXF 393 renal
[26] = system: M14 melanoma
[27] = system: KM12 colon
[28] = system: 786-0 renal
[29] = system: CCRF-CEM leukemia
[30] = system: HS 578T breast
[31] = system: SF-268 CNS
[32] = system: HCC-2998 colon
[33] = system: LOX IMVI melanoma
[34] = system: PC-3 prostate
[35] = system: HCT-15 colon
[36] = system: K-562 leukemia
[37] = system: COLO 205 colon
[38] = system: HCT-116 colon
[39] = system: UACC-62 melanoma
[40] = system: OVCAR-5 ovarian
[41] = system: A498 renal
[42] = system: HL-60(TB) leukemia
[43] = system: HOP-92 NSCLC
[44] = system: T-47D breast
[45] = system: OVCAR-3 ovarian
[46] = system: NCI-H226 lung
[47] = system: TK-10 renal
[48] = system: NCI-H23 lung
[49] = system: DU-145 prostate
[50] = system: SR leukemia
[51] = system: NCI-H522 lung
[52] = system: SW-620 colon
[53] = system: SF-539 CNS
[54] = system: UO-31 renal
[55] = system: RPMI-8226 leukemia
[56] = system: SNB-75 CNS
[57] = system: MDA-MB-435

CCC(C)(C)c1ccc(OCCCCCCN2CCN(c3ccncc3)CC2)cc1
GI50 [1]: 3.07 µM
TGI [1]: 12.2 µM
GI50 [2]: 10.8 µM
TGI [2]: 24.4 µM
GI50 [3]: 1.76 µM
TGI [3]: 3.65 µM
GI50 [4]: 2.08 µM
TGI [4]: 4.77 µM
GI50 [5]: 3.16 µM
TGI [5]: 12.2 µM
GI50 [6]: 3.06 µM
TGI [6]: 11.8 µM
GI50 [7]: 10.7 µM
TGI [7]: 23.8 µM
GI50 [8]: 10.2 µM
TGI [8]: 22.4 µM
GI50 [9]: 10.6 µM
TGI [9]: 26.6 µM
GI50 [10]: 1.9 µM
TGI [10]: 3.74 µM
GI50 [11]: 8.19 µM
TGI [11]: 22.2 µM
GI50 [12]: 5.26 µM
TGI [12]: 17.3 µM
GI50 [13]: 3.71 µM
TGI [13]: 13.3 µM
GI50 [14]: 1.79 µM
TGI [14]: 3.58 µM
GI50 [15]: 4.14 µM
TGI [15]: 16.5 µM
GI50 [16]: 6.33 µM
TGI [16]: 19.5 µM
GI50 [17]: 4.97 µM
TGI [17]: 18.6 µM
GI50 [18]: 10.2 µM
TGI [18]: 30.1 µM
GI50 [19]: 6.77 µM
TGI [19]: 23.8 µM
GI50 [20]: 1.73 µM
TGI [20]: 3.95 µM
GI50 [21]: 3.14 µM
TGI [21]: 10.1 µM
GI50 [22]: 14.4 µM
TGI [22]: 29.8 µM
GI50 [23]: 6.33 µM
TGI [23]: 21 µM
GI50 [24]: 2.49 µM
TGI [24]: 8.86 µM
GI50 [25]: 1.89 µM
TGI [25]: 8.42 µM
GI50 [26]: 1.58 µM
TGI [26]: 3.39 µM
GI50 [27]: 4.17 µM
TGI [27]: 15.9 µM
GI50 [28]: 1.67 µM
TGI [28]: 3.15 µM
GI50 [29]: 2.02 µM
TGI [29]: 10.3 µM
GI50 [30]: 7.73 µM
TGI [30]: 26.9 µM
GI50 [31]: 11.8 µM
TGI [31]: 27.9 µM
GI50 [32]: 1.87 µM
TGI [32]: 3.5 µM
GI50 [33]: 1.81 µM
TGI [33]: 3.4 µM
GI50 [34]: 3.63 µM
TGI [34]: 16.2 µM
GI50 [35]: 1.75 µM
TGI [35]: 3.88 µM
GI50 [36]: 1.52 µM
TGI [36]: 6.8 µM
GI50 [37]: 1.66 µM
TGI [37]: 3.33 µM
GI50 [38]: 1.6 µM
TGI [38]: 3.85 µM
GI50 [39]: 11.8 µM
TGI [39]: 24.9 µM
GI50 [40]: 13.4 µM
TGI [40]: 26.2 µM
GI50 [41]: 17.9 µM
TGI [41]: 34.6 µM
GI50 [42]: 1.68 µM
TGI [42]: 4.06 µM
GI50 [43]: 2.17 µM
TGI [43]: 15.4 µM
GI50 [44]: 2.63 µM
TGI [44]: 8.12 µM
GI50 [45]: 3.86 µM
TGI [45]: 16.2 µM
GI50 [46]: 10.6 µM
TGI [46]: 23.7 µM
GI50 [47]: 14.6 µM
TGI [47]: 28.7 µM
GI50 [48]: 3.65 µM
TGI [48]: 14 µM
GI50 [49]: 5.27 µM
TGI [49]: 17.6 µM
GI50 [50]: 2.13 µM
TGI [50]: 9.38 µM
GI50 [51]: 11.8 µM
TGI [51]: 26.5 µM
GI50 [52]: 1.66 µM
TGI [52]: 3.69 µM
GI50 [53]: 1.84 µM
TGI [53]: 3.91 µM
GI50 [54]: 10 µM
TGI [54]: 22.1 µM
GI50 [55]: 2.06 µM
TGI [55]: 4.98 µM
GI50 [56]: 8.03 µM
TGI [56]: 22.4 µM
GI50 [57]: 2.5 µM
TGI [57]: 8.34 µM
